Residues, ends and D or L forms follow the SMILES beside them. *: point of attachment. X1 = CC1(C)C2CC3OB(C(CCCNC(=N)N)N*)OC3(C)C1C2; X2 = CC1(C)C2CC3OB(C(CCCSC(=N)N)N*)OC3(C)C1C2; X3 = CC1(C)C2CC3OB(C(CCCN)N*)OC3(C)C1C2; Boc = CC(C)(C)OC(=O)*
Experiments:
Human thrombin = target: T1, Human thrombin (Homo sapiens, UniProt P00734); test: Inhibition of Thrombin (Esterase Activity); assay type: biochemical; settings: activity remaining 10 to 20 min after initiation
T1 construct: purchased R.Q.P. Laboratories, South Bend, IN Lot HT102
Method: (§1) In the Examples which follow, the hydrolytic activity of each enzyme is measured in both the presence and absence of inhibitor and the percent enzyme activity determined. […] A steady state is reached fairly rapidly and nears completion within 5 min. Activity is evaluated between 10-20 min after the components are mixed to insure that reaction components are at equilibrium. The lowest concentration of inhibitor tested is determined by the estimated concentration of enzyme. […] The maintenance of pseudo-first-order reaction conditions and the sensitivity of the respective assays sets the lowest limit level of inhibitor tested at 10 nM for kallikrein inhibitors and 5 nM for thrombin inhibitors.
A stock solution of thrombin was prepared in 0.010M PIPES Buffer, pH 6.0, containing 0.75 M sodium chloride. […] The initial concentration of substrate was 0.10 mM and the concentration of thrombin was 1.0 nM (based on weight).

Human plasma kallikrein = target: T2, Human plasma kallikrein (Homo sapiens, UniProt P03952); test: Inhibition of Human Plasma Kallikrein; assay type: biochemical; settings: for Percent Activity: activity remaining 10 to 20 min after initiation
T2 construct: purchased Protogen AG (Switzerland)
Method: as §1
Human plasma kallikrein was obtained from Protogen AG (Switzerland). The specific activity as described by the supplier is 15 units per mg. A unit is defined as the quantity of enzyme required to hydrolyze 1 μmole of substrate, H-(D)Pro-Phe-Arg-p-nitroanilide (Kabi S2302), per min at a substrate concentration of 0.50 mM at 25° in 50 mM potassium phosphate buffer, pH 8.0.

T2 sequence (P03952 391-638 limits assumed): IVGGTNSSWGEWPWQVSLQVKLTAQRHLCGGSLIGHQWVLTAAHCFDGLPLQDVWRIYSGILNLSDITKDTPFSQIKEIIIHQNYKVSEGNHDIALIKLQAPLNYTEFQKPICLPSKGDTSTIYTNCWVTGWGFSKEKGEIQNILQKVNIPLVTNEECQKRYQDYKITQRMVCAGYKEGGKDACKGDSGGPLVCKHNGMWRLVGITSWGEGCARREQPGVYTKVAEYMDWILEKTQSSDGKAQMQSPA
T2 sequence (P03952 20-390 partner limits assumed): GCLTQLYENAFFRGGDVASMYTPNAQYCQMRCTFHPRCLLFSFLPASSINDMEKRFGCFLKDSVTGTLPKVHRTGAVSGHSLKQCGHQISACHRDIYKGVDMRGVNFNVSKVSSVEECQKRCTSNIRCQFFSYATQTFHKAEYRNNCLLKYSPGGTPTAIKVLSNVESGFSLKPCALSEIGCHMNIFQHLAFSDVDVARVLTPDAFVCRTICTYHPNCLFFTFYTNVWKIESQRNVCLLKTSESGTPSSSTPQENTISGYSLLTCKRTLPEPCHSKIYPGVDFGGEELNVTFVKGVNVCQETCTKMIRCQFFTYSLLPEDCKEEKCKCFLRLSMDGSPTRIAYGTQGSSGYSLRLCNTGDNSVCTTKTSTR

Br.CC(C)CC(NC(=O)CNC(=O)C(CC(C)C)NC(=O)OC(C)(C)C)C(=O)NC(C)C(=O)NC(CCCSC(=N)N)B1OC2CC3CC(C3(C)C)C2(C)O1 (stereo not drawn) [Boc-Leu-Gly-Leu-Ala-boroIrg-C10 H16.HBr] (Boc-LGLA-X2; configuration not given here) was tested, and the “Percent Activity” value (Human thrombin; inhibitor 10 nM) was 66%.
In the case of CC(C)(C)OC(=O)NC(Cc1ccccc1)C(=O)N1CCCC1C(=O)NC(CCCN)B1OC2CC3CC(C3(C)C)C2(C)O1.O=S(=O)(O)c1ccccc1 (stereo not drawn) [Boc--(D)Phe--Pro--boroOrn--C10 H16.BSA, Boc-(D)Phe-Pro-NH-CH[(CH2)3 NH2 ]BO2 -C10 H16.benzene sulfonic acid], the “Percent Activity” value (Human plasma kallikrein; inhibitor 10000 nM) is reported as 100% and the “Percent Activity” value (Human thrombin; inhibitor 100 nM) is reported as 18%.
With Br.CC(NC(=O)OC(C)(C)C)C(=O)NC(Cc1ccccc1)C(=O)NC(CCCCSC(=N)N)B1OC(C)(C)C(C)(C)O1 (stereo not drawn) [Boc-Ala-Phe-(D,L)boroHomoIrg-C6 H12.HBr] the “Percent Activity” value (Human plasma kallikrein; inhibitor 100 nM) was 38% and the “Percent Activity” value (Human thrombin; inhibitor 10000 nM) was 32%.
Br.CC(=O)NC(C)C(=O)NC(CCCCNC(=O)OC(C)(C)C)C(=O)NC(CCCSC(=N)N)B1OC2CC3CC(C3(C)C)C2(C)O1 (stereo not drawn) [Ac--Ala--Lys(Boc)--boroIrg--C10 H16.HBr, Ac-Ala-Lys(Boc)-boroIrg-C10 H16.HBr] was tested, and the “Percent Activity” value (Human plasma kallikrein; inhibitor 50 nM) was 1.4% and the “Percent Activity” value (Human thrombin; inhibitor 100 nM) was 55%.
For “H-A]a-Phe-(D,L)boroLys-C6 H12.TFA.benzene sulfonic acid [H--Ala--Phe--D,L)boroLys--C6 H12.2HCl]”, the “Percent Activity” value (Human thrombin; inhibitor 10000 nM) was 89%.
With CC1(C)C2CC3OB(C(CCCNC(=N)N)NC(=O)C(Cc4ccccc4)NC(=O)C(N)Cc4ccccc4)OC3(C)C1C2.Cl.Cl (stereo not drawn) [H--(D)Phe--Phe--boroArg--C10 H16.2HCl, H-(D)Phe-Phe-boroArg-C10 H16.2HCl] the inhibits kallikrein (Human plasma kallikrein; inhibitor 10 nM) was “greater than 95%”, the “Percent Activity” value (Human plasma kallikrein; inhibitor 10 nM) was 2.6% and the “Percent Activity” value (Human thrombin; inhibitor 10 nM) was 10%.
For Br.CC1(C)C2CC3OB(C(CCCSC(=N)N)NC(=O)CNC(=O)CNC(=O)C(Cc4ccccc4)NC(=O)OCc4ccccc4)OC3(C)C1C2 (stereo not drawn) [Z--Phe--Gly--Gly--boroIrg--C10 H16.HBr, Z-PheGly-Gly-boroIrg-C10 H16.HBr], the “Percent Activity” value (Human thrombin; inhibitor 100 nM) was 46%.
With Br.CC1(C)C2CC3OB(C(CCCSC(=N)N)NC(=O)C(Cc4ccccc4)NC(=O)C4CCCN4C(=O)c4ccccc4)OC3(C)C1C2 (stereo not drawn) [Bz--Pro--Phe--boroIrg--C10 H16.HBr, Bz-Pro-Phe-boroIrg-C10 H16.HBr] the “Percent Activity” value (Human thrombin; inhibitor 1000 nM) was 21%.
In the case of Br.Br.CC(N)C(=O)NC(Cc1ccccc1)C(=O)NC(CCCSC(=N)N)B1OC(C)(C)C(C)(C)O1 (stereo not drawn) [H--Ala--Phe--(D,L)boroIrg--C6 H12.2HBr, H-Ala-Phe-(D,L)boroIrg-C6 H12.2HBr], the “Percent Activity” value (Human thrombin; inhibitor 10000 nM) is reported as 23%.
“Bz-Glu(OBu)-Gly-boroIrg-C10 H16.HBr [Bz--Glu(OBu--Gly--boroIrg--C10 H16.HBr]” was tested, and the “Percent Activity” value (Human thrombin; inhibitor 10 nM) was 59%.
With Cl.NC(N)=NCCC[C@H](NC(=O)[C@H](Cc1ccccc1)NC(=O)[C@@H]1CCCN1C(=O)c1ccccc1)B(O)O [Bz--Pro--Phe--boroArg--OH.HCl, Bz-Pro-Phe-boroArg-OH.HCl] the “Percent Activity” value (Human plasma kallikrein; inhibitor 10 nM) was 16% and the “Percent Activity” value (Human thrombin; inhibitor 1000 nM) was 18%.
CC(C)CC(NC(=O)CNC(=O)C(CC(C)C)NC(=O)OC(C)(C)C)C(=O)NC(C)C(=O)NC(CCCN)B1OC2CC3CC(C3(C)C)C2(C)O1.O=S(=O)(O)c1ccccc1 (stereo not drawn) [Boc-Leu-Gly-Leu-Ala-boroOrn-C10 H16] (Boc-LGLA-X3; configuration not given here) was tested, and the “Percent Activity” value (Human thrombin; inhibitor 1000 nM) was 24%.
For Br.CC1(C)C2CC3OB(C(CCCSC(=N)N)NC(=O)CNC(=O)C(CCC(=O)O)NC(=O)c4ccccc4)OC3(C)C1C2 (stereo not drawn) [Bz--Glu--Gly--boroIrg-- C10 H16.HBr, Bz-Glu-Gly-boroIrg-C10 H16.HBr], the “Percent Activity” value (Human thrombin; inhibitor 1000 nM) was 39%.
In the case of CC(C)CC(N)C(=O)NCC(=O)NC(CC(C)C)C(=O)NC(C)C(=O)NC(CCCNC(=N)N)B1OC2CC3CC(C3(C)C)C2(C)O1.Cl.O=S(=O)(O)c1ccccc1 (stereo not drawn) [H-Leu-Gly-Leu-Ala-boroArg-C10 H16.HCl.benzene sulfonic acid] (H-LGLA-X1; configuration not given here), the “Percent Activity” value (Human thrombin; inhibitor 10 nM) is reported as 25%.
With CC(C)CC(NC(=O)C(NC(=O)OC(C)(C)C)C(C)C)C(=O)NC(CCCCN)B1OC(C)(C)C(C)(C)O1.Cl (stereo not drawn) [Boc--(D)Val--Leu--boroLys--C6 H12.HCl, Boc-(D)Val-Leu-boroLys-C6 H12.benzene sulfonic acid] the “Percent Activity” value (Human thrombin; inhibitor 1000 nM) was 21%.
In the case of Br.CC1(C)C2CC3OB(C(CCCSC(=N)N)NC(=O)C4CCCN4C(=O)C(N)Cc4ccccc4)OC3(C)C1C2.Cl (stereo not drawn) [H--(D)Phe--Pro--boroIrg--C10 H16.HBr.HCl, H-(D)Phe-Pro-boroIrg-C10 H16.HBr,HCl], the “Percent Activity” value (Human thrombin; inhibitor 5 nM) is reported as 4%.
For CC(=O)NC(C)C(=O)NC(CCCCN)C(=O)NC(CCCNC(=N)N)B1OC2CC3CC(C3(C)C)C2(C)O1.Cl.Cl (stereo not drawn) [Ac--Ala--Lys--boroArg--C10 H16.2HCl, Ac-Ala-Lys-boroArg-C10 H16.2HCl], the “Percent Activity” value (Human plasma kallikrein; inhibitor 50 nM) was 39% and the “Percent Activity” value (Human thrombin; inhibitor 1000 nM) was 45%.
For Br.Br.CC(=O)NC(C)C(=O)NC(CCCCN)C(=O)NC(CCCSC(=N)N)B1OC2CC3CC(C3(C)C)C2(C)O1 (stereo not drawn) [Ac--Ala--Lys--boroIrg--C10 H16.2HBr, Ac-Ala-Lys-boroIrg-C10 H16.2HBr], the “Percent Activity” value (Human thrombin; inhibitor 1000 nM) was 68%.
In the case of CC(C)CC(NC(=O)CNC(=O)C(CC(C)C)NC(=O)OC(C)(C)C)C(=O)NC(C)C(=O)NC(CCCNC(=N)N)B1OC2CC3CC(C3(C)C)C2(C)O1.O=S(=O)(O)c1ccccc1 (stereo not drawn) [Boc-Leu-Gly-Leu-Ala-boroArg-C10 H16.benzene sulfonic acid] (Boc-LGLA-X1; configuration not given here), the “Percent Activity” value (Human plasma kallikrein; inhibitor 10 nM) is reported as 30% and the “Percent Activity” value (Human thrombin; inhibitor 10 nM) is reported as 38%.
In the case of CC(NC(=O)OC(C)(C)C)C(=O)NC(Cc1ccccc1)C(=O)NC(CCCCN)B1OC(C)(C)C(C)(C)O1.Cl (stereo not drawn) [Boc--Ala--Phe--(D,L)boroLys--C6 H12.HCl, Boc-Ala-Phe-(D,L)boroLys-C6 H12.HCl], the “Percent Activity” value (Human plasma kallikrein; inhibitor 1000 nM) is reported as 17% and the “Percent Activity” value (Human thrombin; inhibitor 10000 nM) is reported as 46%.
In the case of CCCCOC(=O)CC[C@H](NC(=O)c1ccccc1)C(=O)NCC(=O)NC(CCCNC(=N)N)B1OC2CC3CC(C3(C)C)C2(C)O1.O=S(=O)(O)c1ccccc1 (stereo partly drawn) [Bz--Glu(OBu)--Gly--boroArg--C10 H16.BSA, Bz-Glu(OBu)-Gly-boroArg-C10 H16.benzene sulfonic acid], the “Percent Activity” value (Human plasma kallikrein; inhibitor 50 nM) is reported as 11% and the “Percent Activity” value (Human thrombin; inhibitor 10 nM) is reported as 52%.
CC(C)(C)OC(=O)NC(Cc1ccccc1)C(=O)NC(Cc1ccccc1)C(=O)NC(CCCN)B1OC2CC3CC(C3(C)C)C2(C)O1.O=S(=O)(O)c1ccccc1 (stereo not drawn) [Boc--(D)Phe--Phe--boroOrn--C10 H16.BSA, Boc-(D)Phe-Phe-boroOrn-C10 H16.benzene sulfonic acid] was tested, and the “Percent Activity” value (Human plasma kallikrein; inhibitor 10000 nM) was 39%.
CC(=O)NC(Cc1ccccc1)C(=O)NC(CCCCN)B1OC(C)(C)C(C)(C)O1.Cl (stereo not drawn) [Ac--Phe--boroLys--C6 H12.HCl, Ac-Phe-boroLys-C6 H12.benzene sulfonic acid] was tested, and the “Percent Activity” value (Human thrombin; inhibitor 10000 nM) was 97%.
Br.Br.CC1(C)C2CC3OB(C(CCCSC(=N)N)NC(=O)C(Cc4ccccc4)NC(=O)C(N)Cc4ccccc4)OC3(C)C1C2 (stereo not drawn) [H--(D)Phe--Phe-- boroIrg--C10 H16.2HBr, H-(D)Phe-Phe-boroIrg-C10 H16.2HBr] was tested, and the “Percent Activity” value (Human thrombin; inhibitor 10 nM) was 49%.
For Br.Br.CC(C)CC(N)C(=O)NCC(=O)NC(CC(C)C)C(=O)NC(C)C(=O)NC(CCCSC(=N)N)B1OC2CC3CC(C3(C)C)C2(C)O1 (stereo not drawn) [H-Leu-Gly-Leu-Ala-boroIrg-C10 H16.2HBr] (H-LGLA-X2; configuration not given here), the “Percent Activity” value (Human thrombin; inhibitor 10 nM) was 37%.
Br.Br.CC(N)C(=O)NC(Cc1ccccc1)C(=O)NC(CCCCSC(=N)N)B1OC(C)(C)C(C)(C)O1 (stereo not drawn) [H-Ala-Phe-(D,L)boroHomoIrg-C6 H12.2HBr] was tested, and the “Percent Activity” value (Human thrombin; inhibitor 10000 nM) was 47%.

From patent publication US5187157A, “Peptide boronic acid inhibitors of trypsin-like proteases” (Du Pont Merck Pharmaceutical Company, priority 1988, dated 1993)
